For this assay, the target named is Proprotein convertase subtilisin/kexin type 9 (Homo sapiens) (UniProt Q8NBP7). Put plainly: Inhibition of PCSK9 transcriptional activity in human HepG2 cells stably expressing luciferase reporter plasmid containing PCSK9 promoter assessed as decrease in luciferase activity at 10 ug/ml incubated for 24 hrs by Luciferase assay relative to control. It is filed as cell-based. The following applies: dose 10.0 µg/ml.
Chain of Proprotein convertase subtilisin/kexin type 9 (Homo sapiens) (Q8NBP7 31-152 limits assumed): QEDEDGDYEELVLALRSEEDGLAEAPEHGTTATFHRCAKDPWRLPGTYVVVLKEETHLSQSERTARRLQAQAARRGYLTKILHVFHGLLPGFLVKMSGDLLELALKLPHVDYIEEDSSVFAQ
Chain of Proprotein convertase subtilisin/kexin type 9 (Homo sapiens) (Q8NBP7 153-692 limits assumed): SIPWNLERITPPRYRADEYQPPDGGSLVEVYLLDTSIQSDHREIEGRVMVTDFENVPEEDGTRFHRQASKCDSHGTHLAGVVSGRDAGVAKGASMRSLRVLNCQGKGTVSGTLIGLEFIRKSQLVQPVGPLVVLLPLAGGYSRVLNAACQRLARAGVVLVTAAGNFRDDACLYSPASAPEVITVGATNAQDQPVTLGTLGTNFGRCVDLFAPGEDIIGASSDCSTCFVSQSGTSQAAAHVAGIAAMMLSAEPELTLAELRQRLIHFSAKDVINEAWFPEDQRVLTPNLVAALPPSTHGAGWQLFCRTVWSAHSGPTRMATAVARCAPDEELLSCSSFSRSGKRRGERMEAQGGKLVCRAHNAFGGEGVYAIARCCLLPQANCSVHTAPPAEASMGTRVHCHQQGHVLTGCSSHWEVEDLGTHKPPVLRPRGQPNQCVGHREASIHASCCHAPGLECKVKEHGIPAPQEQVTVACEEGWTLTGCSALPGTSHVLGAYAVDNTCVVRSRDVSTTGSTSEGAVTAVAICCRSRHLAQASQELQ
As a reminder, the inhibition is the relative decrease from the control value, in per cent. In the case of `COc1cccc(Cn2c(NCCCN(C)C)nc3c2c(=O)n(C)c(=O)n3C)c1`, the inhibition stood at 2.3%. For `COc1cccc(Cn2c(Nc3cccc(O)c3)nc3c2c(=O)n(C)c(=O)n3C)c1`, the inhibition is -9.3%. The result for `Cn1c(=O)c2c(nc(NCCO)n2Cc2c(F)cccc2F)n(C)c1=O` reads 91%; that for `COc1cccc(Cn2c(NCCN(C)C)nc3c2c(=O)n(C)c(=O)n3C)c1`, 19.6%; that for `Cn1c(=O)c2c(nc(NCCO)n2Cc2ccccc2[N+](=O)[O-])n(C)c1=O`, 20.2%.

Consider `COc1cccc(Cn2c(N3CCSCC3)nc3c2c(=O)n(C)c(=O)n3C)c1`, for which the inhibition stood at 17%.

In the case of `Cn1c(=O)c2c(nc(NCCO)n2Cc2ccc([N+](=O)[O-])cc2)n(C)c1=O`, the inhibition was found to be 23.3%. In the case of `COc1cccc(Cn2c(NCCCCO)nc3c2c(=O)n(C)c(=O)n3C)c1`, the inhibition was 41.4%.

`COc1cccc(Cn2c(NCC(N)=O)nc3c2c(=O)n(C)c(=O)n3C)c1`: the inhibition stood at 59.2%.

For the compound `COC(=O)CNc1nc2c(c(=O)n(C)c(=O)n2C)n1Cc1cccc(OC)c1`, the inhibition was 68.4%. For `COc1ccc(Cn2c(NCCO)nc3c2c(=O)n(C)c(=O)n3C)cc1`, the inhibition was found to be 76.5%. Consider `COc1cccc(Cn2c(N(C)CCO)nc3c2c(=O)n(C)c(=O)n3C)c1`, for which the inhibition was determined as 9.4%. `COc1ccc(Cn2c(NCCO)nc3c2c(=O)n(C)c(=O)n3C)cc1OC`: the inhibition is 16.2%. Regarding `Cn1c(=O)c2c(nc(NCCO)n2CC(=O)c2ccccc2)n(C)c1=O`, the inhibition came out at 40.8%.

Consider `COc1cccc(Cn2c(NCCCCCCO)nc3c2c(=O)n(C)c(=O)n3C)c1`, for which the inhibition was determined as 9%.

For `Cn1c(=O)c2c(nc(NCCO)n2Cc2ccc(F)cc2F)n(C)c1=O`, the inhibition came out at 76.1%. For the compound `COc1cc(Cn2c(NCCO)nc3c2c(=O)n(C)c(=O)n3C)cc(OC)c1`, the inhibition is 1.7%. `COC(=O)CCNc1nc2c(c(=O)n(C)c(=O)n2C)n1Cc1cccc(OC)c1`: the inhibition was found to be 41.4%. Take `COc1cccc(Cn2c(N3CCC(N4CCCC4)CC3)nc3c2c(=O)n(C)c(=O)n3C)c1`: the inhibition was 8.3%. Turning to `COc1cccc(Cn2c(NC[C@H](C)O)nc3c2c(=O)n(C)c(=O)n3C)c1`, the inhibition came out at 68.9%.

As for `Cn1c(=O)c2c(nc(NCCO)n2Cc2cc(F)ccc2F)n(C)c1=O`, the inhibition came out at 79.9%. The result for `COc1cccc(Cn2c(NCC(O)CO)nc3c2c(=O)n(C)c(=O)n3C)c1` (stereo unspecified) reads 11.6%; that for `COc1cccc(Cn2c(N3CCC(CCN(C)C)CC3)nc3c2c(=O)n(C)c(=O)n3C)c1`, 17.4%; that for `COc1cccc(Cn2c(N3CCOCC3)nc3c2c(=O)n(C)c(=O)n3C)c1`, 16.3%. As to `Cc1ccccc1Cn1c(NCCO)nc2c1c(=O)n(C)c(=O)n2C`, the inhibition was found to be 88.1%. In the case of `Cn1c(=O)c2c(nc(NCCO)n2Cc2cccc(F)c2)n(C)c1=O`, the inhibition amounted to 92.6%. As for `COc1cccc(Cn2c(N[C@@H](CO)C(C)C)nc3c2c(=O)n(C)c(=O)n3C)c1`, the inhibition is 18.9%. Take `Cn1c(=O)c2c(nc(NCCO)n2Cc2cccc(Br)c2)n(C)c1=O`: the inhibition was 34.2%. As for `Cn1c(=O)c2c(nc(NCCO)n2Cc2cc(F)cc(F)c2)n(C)c1=O`, the inhibition stood at 43.3%. Consider `Cn1c(=O)c2c(nc(NCCO)n2Cc2ccc(Cl)cc2)n(C)c1=O`, for which the inhibition came out at 47%. In the case of `COc1cccc(Cn2c(N[C@@H](C)CO)nc3c2c(=O)n(C)c(=O)n3C)c1`, the inhibition amounted to 81%. For `COc1cccc(Cn2c(NC(CO)CO)nc3c2c(=O)n(C)c(=O)n3C)c1`, the inhibition stood at 37%. The figure for `COc1cccc(Cn2c(NCCCO)nc3c2c(=O)n(C)c(=O)n3C)c1` is 60.1%; for `Cn1c(=O)c2c(nc(NCCO)n2Cc2ccc(F)cc2)n(C)c1=O` it is 93.1%. As for `COc1cccc(Cn2c(N3CCCCC3CN3CCCC3)nc3c2c(=O)n(C)c(=O)n3C)c1` (stereo unspecified), the inhibition was 0.8%. With `Cn1c(=O)c2c(nc(NCCO)n2Cc2cccc(OC(F)(F)F)c2)n(C)c1=O`, the inhibition amounted to 84.7%.
